For data set [1] the following is noted: male, cynomolgus monkey, in vivo, 12 h.
Data set [2] has as its system human nasal epithelial cells. As to conditions: 10 μM.
Data set [3] is described as follows: in vivo. As to conditions: male, cynomolgus monkey, Mean Intracellular Compound 1-6 Concentration.
Data set [4] deals with human bronchial epithelial cells. As to conditions: 10 μM.
Data set [5] relates to human airway epithelial (HAE) cells. Put plainly: Cytotoxicity in dNHBE / HAE cells by visual inspection. As to conditions: visual toxicity, Table 11.
The subject of data set [6] is MERS-CoV (EMC). The format is cell-based. As to conditions: MERS-CoV versus other CoVs.
The test system of data set [7] is Huh-7 cells.
Data set [8] deals with human airway epithelial (HAE) cells.
Data set [9] has as its system human coronavirus alpha-229E. Put plainly: Visual CPE assay, coronavirus alpha-229E in Huh7 cells. Type of data set: cell-based. As to conditions: Huh-7. As to the method: (§1) Huh7 cells were seeded in 96-well plates at a concentration that yielded 80-100% confluent monolayers in each well after overnight incubation. Compound 1A was dissolved in DMSO to 10 mg/mL and 8 half-log serial dilutions in test medium (modified Eagle's medium containing 5% fetal bovine serum and […] gentamicin) were prepared with the highest concentration of 50 μg/mL. 100 μL of each concentration were added to 5 test wells on the 96-well plate and 3 wells were infected with test virus in test medium (≤100 CCID50 per well). An equivalent amount of test medium was added to the remaining test wells to assess toxicity to uninfected cells. Six wells were infected to serve as untreated virus controls. Media only was added to 6 wells to serve as cell controls. Plates were incubated at 37° C. in a humidified 5% CO2 atmosphere until cytopathic effect (CPE) was observed microscopically.

The test system of data set [10] is Huh7 cells. The data set is described as follows: Visual cytotoxicity in uninfected Huh7 cells. Type of data set: cell-based, human. As to the method:
as §1

The test system of data set [11] is RD cells. As to conditions: human.
The subject of data set [12] is human bronchial epithelial cells. The data set is described as follows: Triphosphate formation in human bronchial epithelial cells. As to conditions: human nasal and bronchial epithelial cells, up to 100 μM.
A short description of data set [13]: Plasma PK in non-human primates after oral Compound 2A. As to conditions: monkey plasma, oral Compound 2A 60 mg/kg then 30 mg/kg every 12 h, steady state.
Data set [14] deals with SARS-CoV-2 (WA1). The data set is described as follows: Virus yield reduction assay, SARS-CoV-2 in dNHBE / HAE cells. Type of data set: cell-based. As to the method: The antiviral activity of Compound 1A was next evaluated against SARS-CoV-2 (WA1) using differentiated normal human bronchial epithelial (dNHBE; HAE (human airway epithelial) cells made to order by MatTek Corporation (Ashland, MA).
Cell Culture: dNHBE cells were grown on 6 mm mesh disks and arrived in kits with either 12- or 24-well transwell inserts. During transportation the tissues were stabilized on a sheet of agarose, which was removed upon receipt. One insert was estimated to consist of approximately 1.2×10^6 cells. Kits of cell inserts (EpiAirway™ AIR-100, AIR-112) originated from a single donor, #9831, a healthy, non-smoking person. The cells have unique properties in forming layers, the apical side of which is exposed only to air and that creates a mucin layer. Upon arrival, the cell transwell inserts were immediately transferred to individual wells of a 6-well plate according to manufacturer's instructions, and 1 mL of MatTek's proprietary culture medium (AIR-100-MM) was added to the basolateral side, whereas the apical side was exposed to a humidified 5% CO2 environment. Cells were cultured at 37° C. for one day before the start of the experiment. After the 24 hour equilibration period, the mucin layer, secreted from the apical side of the cells, was removed by washing with 400 μL pre-warmed 30 mM HEPES buffered saline solution 3×. Culture medium was replenished following the wash steps.
Viruses: Virus was diluted in AIR-100-MM medium before infection, yielding a multiplicity of infection (MOI) of approximately 0.0015 CCID50 per cell.
The cells were maintained at the air-liquid interface.
Determination of virus titers from each treated cell culture: Vero 76 cells were seeded in 96-well plates and grown overnight (37° C.) to confluence. Samples containing virus were diluted in 10-fold increments in infection medium and 200 μL of each dilution transferred into respective wells of a 96-well microtiter plate. Four microwells were used for each dilution to determine 50% viral endpoints. After 5 days of incubation, each well was scored positive for virus if any cytopathic effect (CPE) was observed as compared with the uninfected control and counts were confirmed for endpoint on days 6 and 7. […] The day 5 values were reported. Untreated, uninfected cells were used as the cell controls.
The antiviral activities of test compounds were evaluated against SARS-CoV-2 (USA-WA1/2020) using made to order human airway epithelial (HAE) cells.
Cell Culture: HAE cells were grown on 6 mm mesh disks and arrived in kits with either 12- or 24-well transwell inserts. During transportation the tissues were stabilized on a sheet of agarose, which was removed upon receipt. One insert was estimated to consist of approximately 1.2×10^6 cells. Kits of cell inserts (EpiAirway™ AIR-100 or AIR-112) originated from a single donor, #9831, a healthy, non-smoking person. The cells form polarized monolayers, the apical side of which is exposed to air and creates a mucin layer. Upon arrival, the cell transwell inserts were immediately transferred to individual wells of a 6-well plate according to the manufacturer's instructions, and 1 mL of MatTek's proprietary culture medium (AIR-100-MM) was added to the basolateral side, whereas the apical side was exposed to a humidified 5% CO2 environment. Cells were cultured at 37° C. in a humidified atmosphere containing 5% CO2 for one day before the start of the experiment. After the 24-h equilibration period, the mucin layer, secreted from the apical side of the cells, was removed by washing with 400 μL pre-warmed 30 mM HEPES buffered saline solution 3×. Culture medium was replenished following the wash steps.
Viruses: Virus was diluted in AIR-100-MM medium before infection to yield a MOI when added to cultures of approximately 0.0015 CCID50 per cell.
Select compounds of the present invention were tested in a SARS-CoV-2 assay. […]

Values joined by “and” are separate entries in the source; they are usually repeats but may differ in a detail not shown here. Equal entries are not always repeated. Where two headings read alike, the source gives them in different places.

Take `C[C@@]1(F)[C@H](O)[C@@H](COP(=O)(O)OP(=O)(O)OP(=O)(O)O)O[C@H]1n1cnc2c(=O)[nH]c(N)nc21` [Compound 1-6]: the “Mean Intracellular Compound 1-6 Concentration” value in [1] turned out to be 0.089 µM; in [2] (0 h), 236 µM; in [2] (15 h), 204 µM; in [2] (24 h) it was 170 µM; in [2] (48 h), 107 µM; in [2] (72 h) it was 73.8 µM. Moreover, the “Mean Intracellular Compound 1-6 Concentration” value in data set [4] (0 h) is 698 µM; in [4] (15 h) it was 560 µM; in data set [4] (24 h), 462 µM; in data set [4] (48 h), 290 µM; in [4] (72 h), 217 µM. The same compound showed a concentration at 24 h in data set [3] of 32 nM.

For `CCC(CC)COC(=O)[C@H](C)N[P@](=O)(OC[C@H]1O[C@@](C#N)(c2ccc3c(N)ncnn23)[C@H](O)[C@@H]1O)Oc1ccccc1` [Remdesivir], the “VYR Assay CC50” value in [5] was “no visual tox no visual tox no visual tox no visual tox”.

Take `CNc1nc(N)nc2c1ncn2[C@@H]1O[C@H](CO[P@@](=O)(N[C@@H](C)C(=O)OC(C)C)Oc2ccccc2)[C@@H](O)[C@@]1(C)F` [Compound 1A]: in [6], the “difference of activity between MERS-CoV and other CoVs” value was 30 fold. In addition, in data set [7], the cytotoxicity result is given as “No cytotoxicity was detected”. Also, the CC50 (in general, the concentration giving 50% cytotoxicity) is > 50000 nM in data set [7] (human), > 50000 nM in data set [10] (Alpha-229E row), > 50000 nM in [10] (Beta-OC43 row) and > 86000 nM in [11]. The “VYR Assay CC50” value in data set [8] is recorded as “no visual tox no visual tox no visual tox”. For the same compound, it took 1000 nM to reach a half-maximal effect in data set [9] (EC50). Moreover, in data set [12], the toxicity result is “no toxicity was observed”. In [13], this compound displayed an AUC0-12 h of 0.44 µM·h. Further, the Cmax (commonly the peak of the concentration-time curve) in [13] worked out at 640 nM. In addition, the T1/2 in data set [13] was found to be 44.4 min. In addition, the time to peak (Tmax) – broadly, the time at which the peak concentration occurs – in data set [13] was in the range of 30 to 60 min. Also, the “replicate EC90 determinations” value in [14] (SARS-CoV-2 (WA1) in dNHBE, single replicates) came to 0.41 µg/mL. Besides, the EC90 – broadly, the point of the concentration-response curve where the effect stands at 90% – was 460 nM and 520 nM in data set [14] (SARS-CoV-2 in HAE (dNHBE) cells, Table 11, read-out: VYR Assay EC90); 700 nM and 420 nM in [14] (SARS-CoV-2 in HAE, footnotes f, g, h of Table 5, read-out: EC90, single replicates); 630 nM in data set [14] (Severe acute respiratory syndrome coronavirus 2, HAE, SARS-CoV-2 in HAE (dNHBE) cells, Table 11, read-out: VYR Assay EC90).

(Values after patent US12551499B2 (Atea Pharmaceuticals, Inc., priority 2020, dated 2026).)
